Assay results taken from US20220096592A1, “PIC1 VARIANTS WITH IMPROVED SOLUBILITY AND METHODS OF USING THE SAME” (priority 2019, published 2022).
Entries after “also recorded” stand apart in the source; their conditions may differ. Where a SMILES comes first, the peptide text is derived from it. [ ]: non-standard residue; d: D form. Sar = CNCC(=O)O

Columns and labels:
myeloperoxidase (MPO) = biological target: T1, myeloperoxidase (MPO) (Homo sapiens, UniProt P05164); test: MPO peroxidase activity, TMB-based assay; format: biochemical; conditions: dose-response and half-maximal inhibition, FIG. 2A, 2B
T1 construct: purchased Lee BioSolutions (Maryland Heights, Mo.)
T1 sequence (P05164 279-745 limits assumed): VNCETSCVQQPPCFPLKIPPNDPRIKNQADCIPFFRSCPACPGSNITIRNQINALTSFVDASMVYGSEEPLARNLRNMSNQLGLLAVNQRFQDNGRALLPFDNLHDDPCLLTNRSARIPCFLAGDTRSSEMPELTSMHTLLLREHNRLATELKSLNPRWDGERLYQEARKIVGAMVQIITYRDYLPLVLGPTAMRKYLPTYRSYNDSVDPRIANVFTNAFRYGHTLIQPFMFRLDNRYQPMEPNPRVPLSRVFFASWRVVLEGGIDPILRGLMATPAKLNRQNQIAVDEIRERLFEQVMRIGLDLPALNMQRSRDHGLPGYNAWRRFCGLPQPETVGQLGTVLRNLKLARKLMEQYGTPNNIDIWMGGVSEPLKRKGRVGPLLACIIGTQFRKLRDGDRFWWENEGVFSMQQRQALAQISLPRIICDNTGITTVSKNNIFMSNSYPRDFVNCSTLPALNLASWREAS
T1 sequence (P05164 165-273 limits assumed): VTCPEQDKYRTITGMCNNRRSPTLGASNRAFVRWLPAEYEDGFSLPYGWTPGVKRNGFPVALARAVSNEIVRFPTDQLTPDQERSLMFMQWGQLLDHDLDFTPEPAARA
Method: PIC1 and sarcosine variants were diluted to 25 mg/ml and then serially titrated in a 96 well plate at a volume of 0.02 ml. Myeloperoxidase (MPO) was diluted to 20 μg/ml and 0.02 ml was added to the titrated peptides. TMB (3,3′,5,5′-tetramethylbenzidine) (0.1 ml) was added to each well for 2 minutes, followed by 0.1 ml of 2.5 N H2SO4 for another 2 minutes, and then read on a 96 well plate reader (BioTek) at 450 nm.
In this assay, the variants were tested for MPO inhibition over a range of concentrations. Strong MPO inhibition was found for all variants with the exception of the no-cysteine variant (C9,10).

MPO heme ring = biological target: T2, MPO heme ring (Homo sapiens, UniProt P05164); test: MPO heme ring oxidative degradation (absorbance 300-550 nm); format: biochemical; conditions: peptides at 3 mM, with H2O2, FIG. 3A-3H
T2 construct: purchased Lee BioSolutions (Maryland Heights, Mo.)
T2 sequence (P05164 279-745 limits assumed): as the sequence (P05164 279-745 limits assumed) above
T2 sequence (P05164 165-273 limits assumed): as the sequence (P05164 165-273 limits assumed) above
Method: In a 96 well plate, 0.025 ml of 1.7 mg/ml MPO was combined with 0.00125 ml of 0.5% H2O2 and 3 mM PIC1 or sarcosine variant peptides in a total volume of 0.125 ml PBS and left to incubate at room temperature for 2 minutes. Using a 96 well plate reader, the wells were scanned for absorbance from 300-550 nm to generate curves reflecting the iron state in the MPO heme ring, as previously reported.
The ability of the variants to prevent degradation of the heme ring in the MPO molecule was then evaluated. […] Degradation of the heme ring can be evaluated via spectrometric measurements of absorption of wavelengths from 300 to 550 nm.

MPO = biological target: T3, MPO (Homo sapiens, UniProt P05164); test: plate-based assay of binding to solid phased MPO; conditions: binding curves and half-maximal binding, FIG. 2C, 2D
T3 construct: purchased Lee BioSolutions (Maryland Heights, Mo.)
T3 sequence (P05164 279-745 limits assumed): as the sequence (P05164 279-745 limits assumed) above
T3 sequence (P05164 165-273 limits assumed): as the sequence (P05164 165-273 limits assumed) above
Method: (§1) The plates were washed with PBST (phosphate buffered saline+0.1% Tween) and then blocked with 1% gelatin/PBS for 2 hours at room temperature. After washing, the plates were incubated with PA or sarcosine variant peptides starting at 2.5 mg/ml and then serially diluted in 1% gelatin/PBS for 1 hour at room temperature. After washing, the plates were probed with rabbit anti-PA (developed with Cocalico Biologicals, Reamstown, Pa.) at 1:1000 in 1% gelatin/PBS for 1 hour, room temperature, followed by a goat anti-rabbit HRP (Sigma Aldrich, St Louis, Mo.) at 1:1,000 in 1% gelatin/PBS for 1 hour at room temperature with a washing step in between. Wells were developed using TMB substrate solution, stopped using 1 N H2SO4, and read at 450 nm in a plate reader.
A plate-based assay was performed to test the binding of the peptide variants to solid phased MPO. MPO binding was identified for all variants, except for C9,10.

[1] = test system: antibody-initiated complement activation (ABO incompatible hemolysis)
Method: (§2) For hemolytic complement assays, human red blood cells (RBCs) from type AB donors were purified, washed and standardized to 1×10^9 cells/ml, as previously described. Human sera from type 0 donors at a 20% final concentration was combined with […] PIC1 or sarcosine variant peptides, and the volume was brought up to 0.15 ml with GVBS^++ and […] RBCs. For factor B-depleted sera hemolytic assays, a final of 0.005% factor B depleted sera was incubated with […] PIC1 or sarcosine variant peptides with 0.1 ml antibody-sensitized sheep red blood cells (EA) in a final volume of 0.75 ml GVBS^++. The samples were incubated for one hour at 37° C. Then, 1.0 ml of GVBS^−− was added to the factor B-depleted samples to stop the reaction. The samples were spun at 3,000 rpm for 5 minutes. The supernatant was then collected and read at 412 nm. An analysis was performed to represent the values as a percent of the positive control, which consists of human 0 sera and AB red blood cells in GVBS^++ buffer.
(§3) An evaluation of the extent to which the peptide variants inhibit antibody-initiated complement activation was performed. The peptide variants were tested in the following two hemolytic assays: (i) an ABO incompatibility ex vivo assay and (ii) a classical pathway CH50-type assay in factor B-depleted sera.
In the ABO incompatibility hemolytic assay, purified erythrocytes from a ‘type AB+’ donor were incubated with sera from a ‘type 0’ subject containing anti-A and anti-B antibodies; peptides were tested at 1.8 mM.

[2] = Total Antioxidant Capacity (TAC) assay; conditions: 0.03-0.25 mM, copper reducing equivalents, FIG. 4
Method: The TAC (Total Antioxidant Capacity) Assay (Cell Biolabs, Inc. San Diego, Calif.) was used to measure the antioxidant capacity of the sarcosine variants based on the reduction of copper (II) to copper (I). The assay was performed according to the recommended kit protocol.
Antioxidant activity was measured in copper reducing equivalents (CRE). Peptides were tested over a range of concentrations from 0.03-0.25 mM then compared to the standard.

[3] = test system: classical complement pathway; conditions: peptides at 0.4 mM, compared with PA-dPEG24, FIG. 1B
Method: as §2, §3
A CH50-type hemolytic assay was then performed. with antibody-sensitized sheep erythrocytes, isolating the classical pathway by utilizing factor B-depleted sera; peptides were tested at 0.4 mM.

C1q = biological target: T4, C1q (Homo sapiens, UniProt P02745+P02746+P02747); test: ELISA-type assay of peptide binding to C1q; conditions: binding curves and half-maximal binding, FIG. 1C, 1D; listed as 18
T4 construct: purchased Complement Technology (Tyler, Tex.)
T4 sequence (P02745 23-245): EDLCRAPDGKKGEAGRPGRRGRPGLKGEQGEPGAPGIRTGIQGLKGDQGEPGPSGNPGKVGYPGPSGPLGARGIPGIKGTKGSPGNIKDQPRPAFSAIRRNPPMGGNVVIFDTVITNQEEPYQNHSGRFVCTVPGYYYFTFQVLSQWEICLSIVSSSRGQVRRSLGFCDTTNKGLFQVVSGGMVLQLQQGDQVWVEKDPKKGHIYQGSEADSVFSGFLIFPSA
T4 sequence (P02746 28-253): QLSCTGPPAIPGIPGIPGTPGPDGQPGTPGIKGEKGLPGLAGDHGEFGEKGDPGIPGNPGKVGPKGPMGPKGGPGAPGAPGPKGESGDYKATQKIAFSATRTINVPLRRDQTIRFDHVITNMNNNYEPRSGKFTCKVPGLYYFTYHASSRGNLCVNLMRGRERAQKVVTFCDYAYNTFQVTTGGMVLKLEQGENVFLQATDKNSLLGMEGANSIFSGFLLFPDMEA
T4 sequence (P02747 29-245): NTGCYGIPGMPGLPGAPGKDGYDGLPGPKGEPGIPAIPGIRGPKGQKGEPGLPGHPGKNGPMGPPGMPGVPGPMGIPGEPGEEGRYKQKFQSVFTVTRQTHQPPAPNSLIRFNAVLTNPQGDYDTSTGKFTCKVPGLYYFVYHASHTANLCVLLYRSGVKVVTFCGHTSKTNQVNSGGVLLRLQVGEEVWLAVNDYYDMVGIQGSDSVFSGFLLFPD
Method: as §1
Higher concentrations of DMSO interfere with the detecting reagents resulting in a partial binding curve.

purified C1q = purified C1q (UniProt P02745); test: cell-based or functional assay
Sequence of purified C1q (P02745 23-245 limits assumed, chain 1 of 3): as the sequence (P02745 23-245) above
Sequence of purified C1q (P02746 28-253 limits assumed, chain 2 of 3, further chain): as the sequence (P02746 28-253) above
Sequence of purified C1q (P02747 29-245 limits assumed, chain 3 of 3, further chain): as the sequence (P02747 29-245) above

Compound | MPO inhibition, in words (myeloperoxidase (MPO)) | inhibition of heme ring degradation, in words (MPO heme ring) | binding to MPO, in words (MPO) | complement inhibition overall, in words ([1]; both hemolytic complement inhibition assays) | inhibition of ABO incompatible hemolysis, in words ([1]; peptides at 1.8 mM, compared with PA-dPEG24, FIG. 1A) | total antioxidant capacity, in words [2] | inhibition of classical pathway hemolysis, in words [3] | binding to C1q, in words (C1q) | inhibition of classical pathway hemolysis in factor B-depleted sera, more than PA-dPEG24 (peptides at 0.4 mM) (purified C1q) [%]
CC[C@H](C)[C@H](N)C(=O)N[C@@H](C)C(=O)N[C@@H](CC(C)C)C(=O)N[C@H](C(=O)N[C@@H](CC(C)C)C(=O)N[C@@H](CCC(=O)O)C(=O)N1CCC[C@H]1C(=O)N(C)CC(=O)N[C@@H](CS)C(=O)N[C@@H](CS)C(=O)N[C@@H](CCC(N)=O)C(=O)N[C@@H](CCC(=O)O)C(=O)N[C@@H](CCCNC(=N)N)C(=O)N[C@@H](C)C(=O)N[C@@H](C)C(=O)O)[C@@H](C)CC [I8, H2N-IALILEP(Sar)CCQERAA-OH] (H-IALILEP[Sar]CCQERAA-OH) | greatest potency among the different variants | near perfect preservation of the heme ring absorption spectrum | superior binding to MPO, as compared with the other sarcosine variants | superior inhibition of antibody-initiated complement activation and hemolysis compared with PA and other peptide variants | inhibited ABO incompatible hemolysis to a greater extent than did the PA-dPEG24 | antioxidant capacity approaching that of PA-dPEG24 | superior activity | superior binding to C1q as compared with the other peptides; also recorded: slightly superior to that of PA-dPEG24 | 
PA-I8Sar (H2N-IALILEP(Sar)CCQERAA-OH) (peptide) |  |  |  |  |  |  |  |  | 75
